Earlier results, collected in CN104306347A, “一种卡维地洛双层缓释片及其制备方法” (BEIJING D-VENTUREPHARM TECHNOLOGY DEVELOPMENT Co Ltd, priority 2014, dated 2015).

Tests used:
[1] = in vivo

Question: For COc1ccccc1OCCNCC(O)COc1cccc2[nH]c3ccccc3c12 (stereo not shown) [卡维地洛], which first-pass effect (after oral administration) is on record?
Answer: 有明显的首过效应

Question: What about the oral absorption (after oral administration) of the same compound?
Answer: 易于吸收

Question: What about the “elimination phase half-life (t1/2b)” value (in vivo) of the same compound?
Answer: 7~10 h

Question: And the “excretion in urine as unchanged drug” value (in vivo)?
Answer: < 2%

Question: And the plasma clearance (in vivo)?
Answer: 500~700 ml/min

Question: And the “steady-state volume of distribution” value (in vivo)?
Answer: ~1.5 L

Question: What about the metabolism (metabolites excreted via bile then faeces) of the same compound?
Answer: 代谢完全

Question: And the “absolute bioavailability (F)” value (oral)?
Answer: 25%~35%

Question: And the “absorption when taken with food” value (taken with food)?
Answer: 吸收减慢

Question: And the “relative bioavailability when taken with food” value (taken with food)?
Answer: 没有明显影响

Question: What about the “incidence of adverse reactions” value [1] of the same compound?
Answer: 很低

Question: What about the “risk of postural hypotension when taken with food” value [1] of the same compound?
Answer: 可减少引起体位性低血压的危险性

Question: And the tolerability [1]?
Answer: 耐受性良好
